Laboratory results reported in the SangsterLogP compilation.

| logP | SMILES |
| --- | --- |
| 5.35 | COC(=O)c1ccc(C=C2c3cccc(O)c3C(=O)c3c(O)cccc32)cc1 |
| 4.6 | O=C1c2c(O)cccc2C(C(=O)/C=C/c2ccccc2)c2cccc(O)c21 |
| 5.01 | O=C1c2c(O)cccc2C(C(=O)Cc2ccc(OCc3ccccc3)cc2)c2cccc(O)c21 |
| 5.83 | Cc1ccc(C=C2c3cccc(O)c3C(=O)c3c(O)cccc32)cc1 |
| 4.96 | O=C1c2c(O)cccc2C(=Cc2ccc([N+](=O)[O-])cc2)c2cccc(O)c21 |
| 4.52 | O=C1c2c(O)cccc2C(=Cc2ccc(O)cc2)c2cccc(O)c21 |
| 4.21 | COc1ccc(CCC(=O)C2c3cccc(O)c3C(=O)c3c(O)cccc32)cc1OC |
| 5.43 | O=C1c2c(O)cccc2C(C(=O)Cc2ccc(OCc3ccccc3)c(OCc3ccccc3)c2)c2cccc(O)c21 |
| 5.67 | O=C1c2c(O)cccc2C(=CCCc2ccccc2)c2cccc(O)c21 |
| 3 | O=C1c2c(O)cccc2C(C(=O)Cc2ccc(O)c(O)c2)c2cccc(O)c21 |
| 3.38 | O=C1c2c(O)cccc2C(C(=O)Cc2ccc(O)cc2)c2cccc(O)c21 |
| 4.63 | O=C1c2c(O)cccc2C(C(=O)CCc2ccccc2)c2cccc(O)c21 |
| 4.58 | N#Cc1ccc(C=C2c3cccc(O)c3C(=O)c3c(O)cccc32)cc1 |
| 5.48 | O=C1c2c(O)cccc2C(=Cc2ccc(C(F)(F)F)cc2)c2cccc(O)c21 |
| 2.61 | O=C1c2c(O)cccc2C(C(=O)Cc2cc(O)c(O)c(O)c2)c2cccc(O)c21 |
| 5.05 | COc1ccc(C=C2c3cccc(O)c3C(=O)c3c(O)cccc32)cc1OC |
| 4.74 | O=C1c2c(O)cccc2C(C(=O)CCCc2ccccc2)c2cccc(O)c21 |
| 4.2 | COc1ccc(CC(=O)C2c3cccc(O)c3C(=O)c3c(O)cccc32)cc1 |
| 4.72 | COc1ccc(CCC(=O)C2c3cccc(O)c3C(=O)c3c(O)cccc32)cc1 |
| 4.68 | COc1cccc(C=CC(=O)C2c3cccc(O)c3C(=O)c3c(O)cccc32)c1 |
| 6.11 | O=C1c2c(O)cccc2C(C(=O)Cc2cc(OCc3ccccc3)c(OCc3ccccc3)c(OCc3ccccc3)c2)c2cccc(O)c21 |
| 3.96 | O=C1c2c(O)cccc2C(C(=O)Cc2ccc([N+](=O)[O-])cc2)c2cccc(O)c21 |
| 4.24 | O=C1c2c(O)cccc2C(C(=O)Cc2ccccc2)c2cccc(O)c21 |
| 4.4 | O=C(O)c1ccc(C=C2c3cccc(O)c3C(=O)c3c(O)cccc32)cc1 |
| 3.73 | O=C1c2c(O)cccc2C(C(=O)CCc2ccc(O)cc2)c2cccc(O)c21 |
| 5.53 | COc1ccc(C=C2c3cccc(O)c3C(=O)c3c(O)cccc32)cc1 |
| 3.32 | O=C1c2c(O)cccc2C(=Cc2cc(O)c(O)c(O)c2)c2cccc(O)c21 |
| 4.23 | O=C1c2c(O)cccc2C(C(=O)/C=C/c2ccc([N+](=O)[O-])cc2)c2cccc(O)c21 |
| 5.33 | CC(C)(C)c1cc(CC(=O)C2c3cccc(O)c3C(=O)c3c(O)cccc32)cc(C(C)(C)C)c1O |
| 5.63 | O=C1c2c(O)cccc2C(C(=O)CCc2ccc(OCc3ccccc3)cc2)c2cccc(O)c21 |
